# Patent US12351580B2, “NLRP3 modulators” (Innate Tumor Immunity, Inc., priority 2017, dated 2025)
# pEC50: −log10 of the molar value.
# Biological target: T1, TLR7 (Homo sapiens, UniProt Q9NYK1)
# T1 construct: host or cells: HEK-Blue cells (human HEK) co-expressing TLR7 and an NF-kB/AP1-inducible SEAP reporter
# T1 sequence (Q9NYK1 27-1049): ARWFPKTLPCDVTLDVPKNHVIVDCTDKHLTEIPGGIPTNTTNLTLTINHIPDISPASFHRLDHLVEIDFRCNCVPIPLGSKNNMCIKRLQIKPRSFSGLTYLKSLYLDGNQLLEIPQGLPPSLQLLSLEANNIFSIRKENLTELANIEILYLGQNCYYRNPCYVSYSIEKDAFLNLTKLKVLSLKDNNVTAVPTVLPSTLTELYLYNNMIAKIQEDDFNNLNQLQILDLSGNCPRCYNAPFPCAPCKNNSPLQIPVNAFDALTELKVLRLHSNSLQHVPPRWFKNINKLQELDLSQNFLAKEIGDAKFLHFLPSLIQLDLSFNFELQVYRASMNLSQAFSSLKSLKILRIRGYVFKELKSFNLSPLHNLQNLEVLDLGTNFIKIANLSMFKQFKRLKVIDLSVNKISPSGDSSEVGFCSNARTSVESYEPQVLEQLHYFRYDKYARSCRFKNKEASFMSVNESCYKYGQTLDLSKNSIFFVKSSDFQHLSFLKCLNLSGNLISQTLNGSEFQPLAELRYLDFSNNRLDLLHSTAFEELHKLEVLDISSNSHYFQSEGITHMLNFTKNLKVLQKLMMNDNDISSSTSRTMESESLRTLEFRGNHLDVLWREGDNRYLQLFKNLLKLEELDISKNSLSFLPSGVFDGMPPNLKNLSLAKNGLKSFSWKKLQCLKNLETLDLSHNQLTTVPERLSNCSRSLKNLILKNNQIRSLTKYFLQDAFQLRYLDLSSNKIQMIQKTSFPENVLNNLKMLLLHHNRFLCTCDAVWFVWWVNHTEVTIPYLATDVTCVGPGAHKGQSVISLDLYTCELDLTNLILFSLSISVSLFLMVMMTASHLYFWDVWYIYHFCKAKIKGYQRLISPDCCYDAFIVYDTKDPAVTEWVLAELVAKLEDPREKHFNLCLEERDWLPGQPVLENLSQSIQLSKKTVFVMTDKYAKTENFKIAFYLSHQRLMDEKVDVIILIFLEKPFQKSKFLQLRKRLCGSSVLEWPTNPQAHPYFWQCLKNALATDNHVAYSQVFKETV
# Assay: In vitro human TLR7 binding reporter assay (HEK-Blue, NF-kB/AP1-inducible SEAP)
# Assay type: cell-based
# Settings: activity range symbols
# Procedure, shortened: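 Reporter cells are plated at 15,000 per well and rested 24 h. Next day, test compounds or DMSO are dispensed, followed by 18 h incubation at 37 °C, 5% CO2.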
row,SMILES,pEC50
1,CCN(Cc1nc2c(N)nc3cc(Br)ccc3c2[nH]1)C(C)=O [Compound 177],< 4.00
2,"CCN(Cc1nc2c(N)nc3cc(Cl)ccc3c2[nH]1)C(C)=O [Compound 179, N-[(4-amino-7-chloro-1H-imidazo[4,5-c]quinolin-2-yl)methyl]-N-ethylacetamide]",< 4.00
3,"CCN(Cc1nc2c(N)nc3cc(-n4cccn4)ccc3c2[nH]1)C(C)=O [Compound 180, N-[(4-amino-7-pyrazol-1-yl-1H-imidazo[4,5-c]quinolin-2-yl)methyl]-N-ethylacetamide]",< 4.00
4,CCN(Cc1nc2c(N)nc3cc(C4=CCCC4)ccc3c2[nH]1)C(C)=O [Compound 183],< 4.00
5,CC(=O)N(C)Cc1nc2c(N)nc3ccccc3c2[nH]1 [Compound 187],4.70 to 6.00
6,COC(=O)CCCn1c(CN(C)C(C)=O)nc2c(N)nc3ccccc3c21 [Compound 188],< 4.00
7,CCN(Cc1nc2c(N)nc3cc(C4CC4)ccc3c2n1Cc1ccc(OC)cc1)C(C)=O [Compound 190],< 4.00
8,CCN(Cc1nc2c(N)nc3ccccc3c2n1CCCNC(=O)OC(C)(C)C)C(C)=O [Compound 191],< 4.00
9,CCN(Cc1nc2c(N)nc3ccc(Br)cc3c2[nH]1)C(C)=O [Compound 194],< 4.00
10,CCN(Cc1nc2c(N)nc3cc(N4CCNC4=O)ccc3c2n1Cc1ccc(OC)cc1)C(C)=O [Compound 196],< 4.00
11,CCN(Cc1nc2c(N)nc3ccc(Cl)cc3c2[nH]1)C(C)=O [Compound 197],< 4.00
12,CCOC(=O)c1cc2c(cc1Br)nc(N)c1nc(CN(CC)C(C)=O)[nH]c12 [Compound 198],< 4.00
13,CCN(Cc1nc2c(N)nc3ccc(Br)cc3c2[nH]1)C(=O)OC [Compound 200],< 4.00
14,CCN(Cc1nc2c(N)nc3ccc(Br)cc3c2[nH]1)S(C)(=O)=O [Compound 201],< 4.00
15,CCN(Cc1nc2c(N)nc3ccc(Br)cc3c2[nH]1)S(=O)(=O)c1ccc(C)cc1 [Compound 202],< 4.00
16,CCN(Cc1nc2c(N)nc3ccc(Br)cc3c2[nH]1)C(=O)C(C)C [Compound 203],< 4.00

row,SMILES,pEC50
1,CCN(Cc1nc2c(N)nc3ccc(Br)cc3c2[nH]1)C(=O)c1ccccc1 [Compound 204],< 4.00
2,CCN(Cc1nc2c(N)nc3ccccc3c2n1CCC(=O)N1CCOCC1)C(=O)OC(C)(C)C [Compound 205],< 4.00
3,CCN(Cc1nc2c(N)nc3ccc(-n4cccn4)cc3c2[nH]1)C(C)=O [Compound 207],< 4.00
4,CCN(Cc1nc2c(N)nc3cc(Br)ccc3c2n1CCCC(=O)N1CCN(C)CC1)C(C)=O [Compound 209],< 4.00
5,CCN(Cc1nc2c(N)nc3cc(Br)ccc3c2n1CCCC(=O)NC)C(C)=O [Compound 210],< 4.00
6,CCN(Cc1nc2c(N)nc3ccccc3c2n1CCC(=O)N1CCN(C(=O)OC(C)(C)C)CC1)C(=O)OC(C)(C)C [Compound 211],< 4.00
7,CCN(Cc1nc2c(N)nc3ccccc3c2n1CCC(=O)N1CCN(C(=O)OC(C)(C)C)CC1)C(C)=O [Compound 212],< 4.00
8,CCN(Cc1nc2c(N)nc3cc(Br)ccc3c2n1CCCC(=O)N(C)C)C(C)=O [Compound 213],< 4.00
9,CCN(Cc1nc2c(N)nc3cc(Br)ccc3c2n1CCCC(=O)N1CCOCC1)C(C)=O [Compound 214],< 4.00
10,CN(C)C(=O)CCCn1c(CN2CCCC2=O)nc2c(N)nc3cc(Br)ccc3c21 [Compound 215],< 4.00
11,COC(=O)CCCn1c(CN2CCCC2=O)nc2c(N)nc3cc(Cl)ccc3c21 [Compound 216],< 4.00
12,CCN(Cc1nc2c(N)nc3cc(Cl)ccc3c2n1CCCC(=O)NC)C(C)=O [Compound 217],< 4.00
13,CCN(Cc1nc2c(N)nc3cc(Br)ccc3c2n1CCCC(=O)OC)C(C)=O [Compound 218],< 4.00
14,CCN(Cc1nc2c(N)nc3cc(Cl)ccc3c2n1CCCC(=O)OC)C(C)=O [Compound 219],< 4.00
15,CCN(Cc1nc2c(N)nc3cc(Cl)ccc3c2n1CCCC(=O)N1CCOCC1)C(C)=O [Compound 220],< 4.00
